Measured values as given in ChEMBL document CHEMBL1128890, “Synthesis and antifungal activities of optically active isomers of SM-8668” (1995).
Values after ≈ are worked out from the molar mass of the structure shown.

Experiments:
Format in all cases: functional
Candida albicans = test: Minimum inhibitory concentration required for in vitro antifungal activity against Candida albicans KB-8 strain
Mus musculus [1] = test: Effective dose against Aspergillus fumigatus MTU6001 strain after iv administration in murine
Mus musculus [2] = test: Effective dose against Candida albicans KB-8 strain after iv administration in murine
Mus musculus [3] = test: Effective dose against Aspergillus fumigatus MTU6001 strain after po administration in murine
Aspergillus fumigatus = test: Minimum inhibitory concentration required for in vitro antifungal activity against Aspergillus fumigatus MTU6001 strain
Mus musculus [4] = test: Effective dose against Candida albicans KB-8 strain after po administration in murine

MIC (Candida albicans) [µg/mL]	MIC (Aspergillus fumigatus) [µg/mL]	Structure (SMILES)	ED50 (Mus musculus [1]) [mg/kg]	ED50 (Mus musculus [2]) [mg/kg]	ED50 (Mus musculus [3]) [mg/kg]	ED50 (Mus musculus [4]) [mg/kg]
0.1 (≈ 0.302 µM)	6.25 (≈ 18.9 µM)	C[C@H]([C@](O)(Cn1cncn1)c1ccc(F)cc1F)S(C)(=O)=O [GENACONAZOLE]	5.3	0.26	4.1	0.27
50 (≈ 151 µM)	> 800	C[C@@H]([C@@](O)(Cn1cncn1)c1ccc(F)cc1F)S(C)(=O)=O	> 25	> 25	> 125	> 100
0.2 (≈ 0.604 µM)	12.5 (≈ 37.7 µM)	CC(C(O)(Cn1cncn1)c1ccc(F)cc1F)S(C)(=O)=O (racemic)			18	0.38
